Test results as given in publication PMC10821124, “Dimeric 3,5-Bis(benzylidene)-4-piperidones: Tumor-Selective Cytotoxicity and Structure-Activity Relationships” (Medicines, 2024).
Read-outs that look alike come from different tables or passages of the source.

Columns and labels:
[1] = tested on: human tumour cell lines HL-60, HSC-2, HSC-3, HSC-4; experiment: Cytotoxicity, average over the four human tumour cell lines; format: cell-based; settings: for CC50: Homo sapiens, read-out: AVE. CC50, human tumour cell lines; for AVE SI: average of the four SI values
Method: (§1) Human promyelocytic leukemia [HL-60 (RCB3683)] (purchased from Riken Cell Bank, Tsukuba, Japan) was cultured at 37 °C in RPMI1640 medium (Fujifilm Wako Pure Chemical Co., Osaka, Japan) supplemented with 10% heat (56 °C, 30 min) inactivated FBS (Sigma-Aldrich Inc. St. Louis, MO, USA), 100 U/mL penicillin G, and 100 µg/mL streptomycin sulfate in a humidified 5% CO2 incubator (MCO-170 AICUVD-P, Panasonic Healthcare Co., Ltd., Gunma, Japan). Human oral squamous cell carcinoma (OSCC) cell lines derived from tongue [HSC-2 (RCB1945), HSC-3 (RCB1975), HSC-4 (RCB1902)] (Riken Cell Bank), and human normal oral cells (gingival fibroblasts, HGF; pulp cell, HPC; periodontal ligament fibroblast, HPLF), established from the first premolar extracted tooth in the lower jaw and periodontal tissues of a child, according to the guidelines of Meikai University Ethic Committee (No. A0808), were cultured in DMEM medium (Fujifilm Wako Pure Chemical Co.) supplemented with 10% FBS and antibiotics. The compounds in Series 2–4 were evaluated against HL-60, HSC-2, HSC-3, HSC-4, HGF, HPC, and HPLF cells based on a literature procedure, as described previously. In brief, near confluent cells were incubated in triplicate for 48 h at 37 °C with different concentrations ([…], 6.3, 12.5, 25, 50, 100 µM) of the compounds; then, viable cell numbers were measured using the MTT method. From the dose–response curve, a 50% cytotoxic concentration (CC50) was determined. All samples were dissolved in dimethylsulfoxide (DMSO). The toxicity of DMSO alone was calculated and subtracted. The CC50 values were determined from dose–response curves.

[2] = Cytotoxicity, average over the three human normal cells; format: cell-based; settings: human, average of HGF, HPC, HPLF; read-out: AVE CC50, human normal cells
Method: as §1

[3] = Cytotoxicity, MTT method, HPC non-malignant cells; format: cell-based, human; settings: human, pulp cells (HPC), non-malignant, mean ± SD
Method: as §1

caspases-3 and -7 = experiment: Caspase-Glo 3/7 assay in HSC-2 cells; format: cell-based, human; settings: 0.5 µM, 24 h
Method: Both 3b (0.5 µM) and 3c (0.5 µM) were examined for their ability to activate caspases-3 and -7 in HSC cells. This determination was accomplished using the Caspase-Glo 3/7 assay (Promega Corporation, Madison, WI, USA). In brief, this assay uses a tetrapeptide sequence DEVD, which is optimized for caspase and luciferase activities. The cell lysate was incubated with the Caspase-Glo reagent (buffer and substrate) for 1 h and the luminescence was measured. The resultant luminescent signal produced by luciferase was confirmed to be proportional to the amount of caspase-3 and -7 activity.

HSC-2 cells = experiment: Cell cycle analysis of HSC-2 cells; format: cell-based, human; settings: 0.5 µM, 24 h
Method: The effect of 3b (0.5 µM) and 3c (0.5 µM) on the phase distribution of HSC-2 cells after 24 h of incubation was determined using the protocol of a manufacturer (BD Pharmingen, BD BioSciences, San Jose, CA, USA). In brief, treated and untreated cells were suspended at a density of ~1 × 10^6 cells/mL in cooled phosphate-buffered saline (PBS) without calcium and magnesium ions and fixed with 70% ethanol overnight at −20 °C. The cells were washed with cooled PBS and re-suspended in a propidium iodide/RNase staining buffer in the dark at room temperature for 0.25 h. Both acquisition and analysis were performed using EPICS ALTRA (Beckman Coulter, Brea, CA, USA) and EXPO 32 software.

HCT116 cells [4] = experiment: Reactive oxygen species determination in HCT116 cells; format: cell-based, human; settings: 48 h, dichlorofluorescein fluorescence
Method: The determination of the effects of 3b, 3c, and 5-FU on the generation of reactive oxygen species in HCT 116 cells was accomplished using a literature procedure. In brief, the cells were incubated at 37 °C in an atmosphere of 5% carbon dioxide for 24 h. Subsequently, solutions of the compounds in DMSO were added to the cells, which were incubated for 48 h. After 2′,7′-dichlorofluorescein was added to the cells, incubation continued for another 0.5 h and the fluorescence of the cells was measured spectrophotometrically (excitation wavelength 485 nm; emission wavelength, 530 nm).

PARP1 = PARP1 cleavage, western blot in HSC-2 cells; format: cell-based, human; settings: 0.5 µM, 24 h
Method: (§2) Antibodies against cleaved PARP1, bim, bax, puma, and bak were obtained from Cell Signaling Technology (Beverley, MA, USA) while the anti-actin antibody was purchased from Santa Cruz Biotechnology (Santa Cruz, CA, USA).
(§3) The HSC-2 cells were cultured for 24 h and, then, treated with 0.5 µM of 3b or 3c for 24 h. The cells were scraped and collected in lysis buffer (purchased from Cell Signaling Technology), which contained 1 mM of phenylmethanesulfonyl fluoride and one tablet of protease inhibitor cocktail (Complete, EDTA-free; Roche Diagnostics, Mannheim, Germany). The proteins were subjected to 8% SDS-polyacrylamide gel electrophoresis and, then, transferred to a polyvinylidene difluoride membrane saturated with 5% nonfat dry milk. The membranes were incubated with rabbit monoclonal anti-cleaved PARP (Cell Signaling Technology, Beverly, MA, USA; #9541, 1:1000), or beta-actin antibody (Sigma-Aldrich, St Louis, MO, USA; A5441, 1:10,000) for 1 h at room temperature. The membranes were washed with Tris-buffered saline containing 0.1% Tween 80. And, the secondary antibodies were horseradish peroxidase-conjugated goat antimouse or antirabbit, which reacted with the chemoluminescent substrate system and were exposed to X-ray films.

[5] = Cytotoxicity, MTT method, HGF non-malignant cells; format: cell-based, human; settings: human, gingival fibroblasts (HGF), non-malignant, mean ± SD
Method: as §1

HCT116 cells [6] = experiment: Mitochondrial membrane potential determination in HCT116 cells; format: cell-based, human; settings: 48 h, tetramethylrhodamine ethyl ester
Method: The determination of the IC50 values of 3b, 3c, and 5-FU on the mitochondrial membrane potential in HCT 116 cells was undertaken using a literature procedure. In brief, the cells were incubated at 37 °C in an atmosphere of 5% carbon dioxide for 24 h. The compounds were dissolved in DMSO, added to the cells, and incubated for 48 h. Then, […], and 2,4-dinitrophenol (DNP) were added to the cells, which were incubated for 0.5 h. After the addition of tetramethylrhodamine ethyl ester, the fluorescence of the cells was determined using a plate reader.

[7] = tested on: human oral squamous cell carcinoma HSC-2 cells; experiment: Cytotoxicity, MTT method, HSC-2 cells; format: cell-based; settings: for CC50: Homo sapiens, read-out: CC50 HSC-2; for SI (selectivity index) HSC-2: average CC50 non-malignant cells / CC50 HSC-2
Method: as §1

bim, bax, puma, and bak = experiment: Pro-apoptotic proteins bim, bax, puma, bak in HSC-2 cells; format: cell-based, human; settings: 24 h, data not shown
Method: as §2, §3

[8] = tested on: human oral squamous cell carcinoma HSC-3 cells; experiment: Cytotoxicity, MTT method, HSC-3 cells; format: cell-based; settings: for CC50: Homo sapiens, read-out: CC50 HSC-3; for SI (selectivity index) HSC-3: average CC50 non-malignant cells / CC50 HSC-3
Method: as §1

[9] = Cytotoxicity, MTT method, HPLF non-malignant cells; format: cell-based, human; settings: human, periodontal ligament fibroblasts (HPLF), non-malignant, mean ± SD
Method: as §1

[10] = tested on: human promyelocytic leukemia HL-60 cells; experiment: Cytotoxicity, MTT method, HL-60 cells; format: cell-based; settings: for CC50: Homo sapiens, read-out: CC50 HL-60; for SI (selectivity index) HL-60: average CC50 non-malignant cells / CC50 HL-60
Method: as §1

[11] = tested on: human oral squamous cell carcinoma HSC-4 cells; experiment: Cytotoxicity, MTT method, HSC-4 cells; format: cell-based; settings: for CC50: Homo sapiens, read-out: CC50 HSC-4; for SI (selectivity index) HSC-4: average CC50 non-malignant cells / CC50 HSC-4
Method: as §1

[12] = tested on: human normal cells HGF, HPC, HPLF; experiment: Cytotoxicity, average over the three human normal cells; format: cell-based; settings: average of HGF, read-out: AVE CC50, human normal cells
Method: as §1

human pulp cells (HPC) = experiment: Cytotoxicity, MTT method, HPC non-malignant cells; format: cell-based; settings: 48 h, mean ± SD
Method: as §1

[13] = tested on: human gingival fibroblasts (HGF); experiment: Cytotoxicity, MTT method, HGF non-malignant cells; format: cell-based; settings: 48 h, mean ± SD
Method: as §1

[14] = tested on: human periodontal ligament fibroblasts (HPLF); experiment: Cytotoxicity, MTT method, HPLF non-malignant cells; format: cell-based; settings: 48 h, mean ± SD
Method: as §1

## O=C1/C(=C/c2ccc(Cl)cc2)CN(C(=O)CC(=O)N2C/C(=C\c3ccc(Cl)cc3)C(=O)/C(=C/c3ccc(Cl)cc3)C2)C/C1=C\c1ccc(Cl)cc1 [Compound 3c]
[1]; average of HL-60, HSC-2, HSC-3, HSC-4
  CC50: 7.25 µM
[1]
  AVE SI: 6.62
[2]
  CC50 at 48 h: 41.3 µM
[3]
  CC50 at 48 h: 38 ± 8.7 µM
caspases-3 and -7
  Induction of caspases-3 and -7: does not exert these effects
HSC-2 cells
  Cell cycle effect: does not exert these effects
HCT116 cells [4]
  Generation of reactive oxygen species (ROS): cause an increase in the ROS concentrations
PARP1
  Cleavage of PARP1: does not exert these effects
[5]
  CC50 at 48 h: 41 ± 2.5 µM
HCT116 cells [6]
  Effect on mitochondrial membrane potential (MMP): no effect at the concentrations utilized
[7]; HSC-2, 48 h, MTT, mean ± SD
  CC50: 5.5 ± 0.65 µM
[7]
  SI (selectivity index) HSC-2: 7.51
bim, bax, puma, and bak
  Effect on pro-apoptotic proteins bim, bax, puma, bak: no changes in the concentrations of these proteins were observed
[8]; HSC-3, 48 h, MTT, mean ± SD
  CC50: 13 ± 2.2 µM
[8]
  SI (selectivity index) HSC-3: 3.18
[9]
  CC50 at 48 h: 45 ± 11 µM
[10]; HL-60, 48 h, MTT, mean ± SD
  CC50: 5000 ± 760 nM
[10]
  SI (selectivity index) HL-60: 8.26
[11]; HSC-4, 48 h, MTT, mean ± SD
  CC50: 5.5 ± 0.96 µM
[11]
  SI (selectivity index) HSC-4: 7.51

## N[C@@H](Cc1ccc(N(CCCl)CCCl)cc1)C(=O)O [Melphalan, reference compound]
[1]
  CC50: 26.2 µM
  AVE SI: 21.0
[2]
  CC50 at 48 h: > 50 µM
[12]
  CC50: 67.3 µM
Human pulp cells (HPC)
  CC50: 37 ± 7.3 µM
[13]
  CC50: 73 ± 15 µM
[7]; HSC-2, 48 h
  CC50: 12 ± 2.7 µM
[7]
  SI (selectivity index) HSC-2: 5.61
[8]; HSC-3, 48 h
  CC50: 46 ± 31 µM
[8]
  SI (selectivity index) HSC-3: 1.46
[14]
  CC50: 92 ± 7.8 µM
[10]; HL-60, 48 h
  CC50: 890 ± 170 nM
[10]
  SI (selectivity index) HL-60: 75.6
[11]; HSC-4, 48 h
  CC50: 46 ± 6 µM
[11]
  SI (selectivity index) HSC-4: 1.46
